From patent US12480920B2, “Method for the detection and quantification of fosfomycin, impurities and degradation products thereof” (MEITHEAL PHARMACEUTICALS, INC., priority 2019, dated 2025)

Assay: Stability study of fosfomycin for injection drug product: analysis of impurities by HILIC-HPLC with CAD detection
Format: physicochemical
Details: fosfomycin for injection drug product (vials, 7.92 g fosfomycin disodium + 150 mg succinic acid), 25° C. and 60% RH; for wt % of impurities at time points (months): 0: 0 months; for wt % of impurities at time points (months): 1: 1 month; for wt % of impurities at time points (months): 3: 3 months; for wt % of impurities at time points (months): 6: 6 months; for wt % of impurities at time points (months): 9: 9 months; for wt % of impurities at time points (months): 12: 12 months
Method: As part of a stability study of fosfomycin for injection drug product, analysis of impurities was performed according to the method of the present invention, using HILIC-HPLC method with CAD detection, as disclosed, for example, in example 2.
The sample subjected to the stability test was fosfomycin for injection drug product, namely, vials containing sterile dry powder admixture of 7.92 g of fosfomycin disodium and 150 mg of succinic acid.
The samples were kept at 25° C. and 60% RH. Analysis of impurities was performed at the following time points: 0, 1, 3, 6, 9 and 12 months. Impurities are reported at weight percentage 0.05% (limit of detection of the method). “Dtd.” in the table stands for “detected”, meaning that the impurity is detected but is under the limit of detection (0.05 wt %). ND stands for “not detected”.

SMILES	wt % of impurities at time points (months): 0	wt % of impurities at time points (months): 1	wt % of impurities at time points (months): 3	wt % of impurities at time points (months): 6	wt % of impurities at time points (months): 9	wt % of impurities at time points (months): 12
CC(OP(=O)(O)C1OC1C)C(O)P(=O)(O)O (stereo not drawn) [Dimer1]	0.05 wt %	0.06 wt %	0.05 wt %	0.08 wt %	0.06 wt %	0.09 wt %
CC(OP(=O)(O)C1OC1C)C(O)P(=O)(O)O (stereo not drawn) [Dimer2]	0.05 wt %	Dtd. (“Dtd.” in the table stands for “detected”, meaning that the impurity is detected but is under the limit of detection (0.05 wt %))	0.07 wt %	0.10 wt %	0.08 wt %	0.11 wt %
CC(OP(=O)(O)C1OC1C)C(O)P(=O)(O)O (stereo not drawn) [Dimer3]	–	–	–	–	–	Dtd. (“Dtd.” in the table stands for “detected”, meaning that the impurity is detected but is under the limit of detection (0.05 wt %))
CCOC(C(C)O)P(=O)(O)O (stereo not drawn) [Ethanol adduct]	–	–	Dtd. (“Dtd.” in the table stands for “detected”, meaning that the impurity is detected but is under the limit of detection (0.05 wt %))	–	Dtd. (“Dtd.” in the table stands for “detected”, meaning that the impurity is detected but is under the limit of detection (0.05 wt %))	Dtd. (“Dtd.” in the table stands for “detected”, meaning that the impurity is detected but is under the limit of detection (0.05 wt %))
CC(O)C(O)P(=O)([O-])[O-].[Na+].[Na+] (stereo not drawn) [Impurity A, (1,2-dihydroxypropyl)phosphonate]	Dtd. (“Dtd.” in the table stands for “detected”, meaning that the impurity is detected but is under the limit of detection (0.05 wt %))	0.06 wt %	0.07 wt %	0.09 wt %	0.11 wt %	0.10 wt %
COC(C(C)O)P(=O)(O)O (stereo not drawn) [Methanol adduct]	0.07 wt %	0.18 wt %	0.13 wt %	0.35 wt %	Dtd. (“Dtd.” in the table stands for “detected”, meaning that the impurity is detected but is under the limit of detection (0.05 wt %))	0.12 wt %
C=CCP(=O)(O)O [Olefinic acid, 2-propenyl phosphonic acid]	0.40 wt %	0.46 wt %	0.39 wt %	0.42 wt %	0.36 wt %	0.40 wt %
CC(OP(=O)(OC(C)C(O)P(=O)(O)O)C1OC1C)C(O)P(=O)(O)O (stereo not drawn) [Trimer]	Dtd	0.07 wt %	–	Dtd. (“Dtd.” in the table stands for “detected”, meaning that the impurity is detected but is under the limit of detection (0.05 wt %))	Dtd. (“Dtd.” in the table stands for “detected”, meaning that the impurity is detected but is under the limit of detection (0.05 wt %))	Dtd. (“Dtd.” in the table stands for “detected”, meaning that the impurity is detected but is under the limit of detection (0.05 wt %))
